{"source": "ChEMBL document CHEMBL1268874", "about": "“A concise, total synthesis and antibacterial evaluation of 2-hydroxy-1-(1H-indol-3-yl)-4-methylpentan-3-one” (2010)", "format_in_all_cases": "functional", "key": {"Staphylococcus aureus [1]": {"tested_on": "Staphylococcus aureus", "experiment": "Antibacterial activity against Staphylococcus aureus ATCC 25923 after 16 to 20 hrs by broth microdilution method"}, "Escherichia coli [2]": {"tested_on": "Escherichia coli", "experiment": "Antibacterial activity against TolC deficient Escherichia coli 701 after 16 to 20 hrs by broth microdilution method"}, "Bacillus subtilis": {"tested_on": "Bacillus subtilis", "experiment": "Antibacterial activity against Bacillus subtilis BD54 after 16 to 20 hrs by broth microdilution method"}, "[3]": {"tested_on": "Stenotrophomonas maltophilia", "experiment": "Antibacterial activity against Stenotrophomonas maltophilia ATCC 13637 after 16 to 20 hrs by broth microdilution method"}, "Enterococcus faecalis [4]": {"tested_on": "Enterococcus faecalis", "experiment": "Antibacterial activity against vancomycin-resistant Enterococcus faecalis ATCC 51575 after 16 to 20 hrs by broth microdilution method"}, "Acinetobacter baumannii": {"tested_on": "Acinetobacter baumannii", "experiment": "Antibacterial activity against Acinetobacter baumannii ATCC 19606 after 16 to 20 hrs by broth microdilution method", "settings": "ATCC 19606 = CIP 70.34 = JCM 6841"}, "Bacillus anthracis": {"tested_on": "Bacillus anthracis", "experiment": "Antibacterial activity against Bacillus anthracis Sterne after 16 to 20 hrs by broth microdilution method"}, "Enterococcus faecalis [5]": {"tested_on": "Enterococcus faecalis", "experiment": "Antibacterial activity against Enterococcus faecalis ATCC 29212 after 16 to 20 hrs by broth microdilution method"}, "Klebsiella pneumoniae [6]": {"tested_on": "Klebsiella pneumoniae", "experiment": "Antibacterial activity against Klebsiella pneumoniae 700603 after 16 to 20 hrs by broth microdilution method"}, "Klebsiella pneumoniae [7]": {"tested_on": "Klebsiella pneumoniae", "experiment": "Antibacterial activity against Klebsiella pneumoniae 13882 after 16 to 20 hrs by broth microdilution method"}, "Burkholderia cepacia [8]": {"tested_on": "Burkholderia cepacia", "experiment": "Antibacterial activity against Burkholderia cepacia 39277 after 16 to 20 hrs by broth microdilution method"}, "Burkholderia cepacia [9]": {"tested_on": "Burkholderia cepacia", "experiment": "Antibacterial activity against Burkholderia cepacia 55792 after 16 to 20 hrs by broth microdilution method"}, "Escherichia coli [10]": {"tested_on": "Escherichia coli", "experiment": "Antibacterial activity against Escherichia coli 700 expressing TolC after 16 to 20 hrs by broth microdilution method"}, "Pseudomonas aeruginosa [11]": {"tested_on": "Pseudomonas aeruginosa", "experiment": "Antibacterial activity against Pseudomonas aeruginosa PAO1 after 16 to 20 hrs by broth microdilution method"}, "Staphylococcus aureus [12]": {"tested_on": "Staphylococcus aureus", "experiment": "Antibacterial activity against methicillin-resistant Staphylococcus aureus 1094 after 16 to 20 hrs by broth microdilution method"}, "Pseudomonas aeruginosa [13]": {"tested_on": "Pseudomonas aeruginosa", "experiment": "Antibacterial activity against DmexAB-oprM deletion mutant of Pseudomonas aeruginosa PAO1 after 16 to 20 hrs by broth microdilution method"}, "[14]": {"settings": "Bacillus subtilis, BD54, read-out: MIC"}}, "data": [{"compound": "CC(=O)OC(C(=O)Cc1c[nH]c2ccccc12)C(C)C", "note": "(centres undefined)", "values": [{"measurement": "MIC", "setting": "Staphylococcus aureus [1]", "value": "> 80", "unit": "µg/mL"}, {"measurement": "MIC", "setting": "Escherichia coli [2]", "value": "> 80", "unit": "µg/mL"}, {"measurement": "MIC", "setting": "Bacillus subtilis; [14]", "value": "> 80", "unit": "µg/mL"}, {"measurement": "MIC", "setting": "[3]", "value": "> 80", "unit": "µg/mL"}, {"measurement": "MIC", "setting": "Enterococcus faecalis [4]", "value": "> 80", "unit": "µg/mL"}, {"measurement": "MIC", "setting": "Acinetobacter baumannii", "value": "> 80", "unit": "µg/mL"}, {"measurement": "MIC", "setting": "Bacillus anthracis", "value": "> 80", "unit": "µg/mL"}, {"measurement": "MIC", "setting": "Enterococcus faecalis [5]", "value": "> 80", "unit": "µg/mL"}, {"measurement": "MIC", "setting": "Klebsiella pneumoniae [6]", "value": "> 80", "unit": "µg/mL"}, {"measurement": "MIC", "setting": "Klebsiella pneumoniae [7]", "value": "> 80", "unit": "µg/mL"}, {"measurement": "MIC", "setting": "Burkholderia cepacia [8]", "value": "> 80", "unit": "µg/mL"}, {"measurement": "MIC", "setting": "Burkholderia cepacia [9]", "value": "> 80", "unit": "µg/mL"}, {"measurement": "MIC", "setting": "Escherichia coli [10]", "value": "> 80", "unit": "µg/mL"}, {"measurement": "MIC", "setting": "Pseudomonas aeruginosa [11]", "value": "> 80", "unit": "µg/mL"}, {"measurement": "MIC", "setting": "Staphylococcus aureus [12]", "value": "> 80", "unit": "µg/mL"}]}, {"compound": "CC(=O)OC(Cc1c[nH]c2ccccc12)C(=O)C(C)C", "note": "(centres undefined)", "values": [{"measurement": "MIC", "setting": "Staphylococcus aureus [1]", "value": "> 90", "unit": "µg/mL"}, {"measurement": "MIC", "setting": "Escherichia coli [2]", "value": "> 80", "unit": "µg/mL"}, {"measurement": "MIC", "setting": "Bacillus subtilis; [14]", "value": "> 80", "unit": "µg/mL"}, {"measurement": "MIC", "setting": "[3]", "value": "> 80", "unit": "µg/mL"}, {"measurement": "MIC", "setting": "Enterococcus faecalis [4]", "value": "> 80", "unit": "µg/mL"}, {"measurement": "MIC", "setting": "Acinetobacter baumannii", "value": "> 80", "unit": "µg/mL"}, {"measurement": "MIC", "setting": "Bacillus anthracis", "value": "> 80", "unit": "µg/mL"}, {"measurement": "MIC", "setting": "Enterococcus faecalis [5]", "value": "> 80", "unit": "µg/mL"}, {"measurement": "MIC", "setting": "Klebsiella pneumoniae [6]", "value": "> 80", "unit": "µg/mL"}, {"measurement": "MIC", "setting": "Klebsiella pneumoniae [7]", "value": "> 80", "unit": "µg/mL"}, {"measurement": "MIC", "setting": "Burkholderia cepacia [8]", "value": "> 80", "unit": "µg/mL"}, {"measurement": "MIC", "setting": "Burkholderia cepacia [9]", "value": "> 80", "unit": "µg/mL"}, {"measurement": "MIC", "setting": "Escherichia coli [10]", "value": "> 80", "unit": "µg/mL"}, {"measurement": "MIC", "setting": "Pseudomonas aeruginosa [11]", "value": "> 80", "unit": "µg/mL"}, {"measurement": "MIC", "setting": "Staphylococcus aureus [12]", "value": "> 80", "unit": "µg/mL"}]}, {"compound": "CC(C)C(O)C(=O)Cc1c[nH]c2ccccc12", "note": "(single isomer, unassigned; (+))", "values": [{"measurement": "MIC", "setting": "Bacillus subtilis", "value": ">40", "unit": "µg/mL"}, {"measurement": "MIC", "setting": "Enterococcus faecalis [4]", "value": "> 80", "unit": "µg/mL"}, {"measurement": "MIC", "setting": "Enterococcus faecalis [5]", "value": "> 80", "unit": "µg/mL"}, {"measurement": "MIC", "setting": "Burkholderia cepacia [8]", "value": "> 80", "unit": "µg/mL"}, {"measurement": "MIC", "setting": "Burkholderia cepacia [9]", "value": "> 80", "unit": "µg/mL"}]}, {"compound": "CC(C)C(=O)C(O)Cc1c[nH]c2ccccc12", "note": "(single isomer, unassigned; (+))", "values": [{"measurement": "MIC", "setting": "Staphylococcus aureus [1]", "value": "> 80", "unit": "µg/mL"}, {"measurement": "MIC", "setting": "Escherichia coli [2]", "value": "> 80", "unit": "µg/mL"}, {"measurement": "MIC", "setting": "Bacillus subtilis; [14]", "value": "> 80", "unit": "µg/mL"}, {"measurement": "MIC", "setting": "[3]", "value": "> 80", "unit": "µg/mL"}, {"measurement": "MIC", "setting": "Enterococcus faecalis [4]", "value": "> 80", "unit": "µg/mL"}, {"measurement": "MIC", "setting": "Acinetobacter baumannii", "value": "> 80", "unit": "µg/mL"}, {"measurement": "MIC", "setting": "Bacillus anthracis", "value": "> 80", "unit": "µg/mL"}, {"measurement": "MIC", "setting": "Enterococcus faecalis [5]", "value": "> 80", "unit": "µg/mL"}, {"measurement": "MIC", "setting": "Klebsiella pneumoniae [6]", "value": "> 80", "unit": "µg/mL"}, {"measurement": "MIC", "setting": "Klebsiella pneumoniae [7]", "value": "> 80", "unit": "µg/mL"}, {"measurement": "MIC", "setting": "Burkholderia cepacia [8]", "value": "> 80", "unit": "µg/mL"}, {"measurement": "MIC", "setting": "Burkholderia cepacia [9]", "value": "> 80", "unit": "µg/mL"}, {"measurement": "MIC", "setting": "Escherichia coli [10]", "value": "> 80", "unit": "µg/mL"}, {"measurement": "MIC", "setting": "Pseudomonas aeruginosa [11]", "value": "> 80", "unit": "µg/mL"}, {"measurement": "MIC", "setting": "Staphylococcus aureus [12]", "value": "> 80", "unit": "µg/mL"}]}, {"compound": "CC(C)C(O)C(=O)Cc1c[nH]c2ccccc12", "note": "(single isomer, unassigned; (-))", "values": [{"measurement": "MIC", "setting": "Staphylococcus aureus [1]", "value": "> 80", "unit": "µg/mL"}, {"measurement": "MIC", "setting": "Escherichia coli [2]", "value": "> 80", "unit": "µg/mL"}, {"measurement": "MIC", "setting": "Bacillus subtilis; [14]", "value": "> 80", "unit": "µg/mL"}, {"measurement": "MIC", "setting": "[3]", "value": "> 80", "unit": "µg/mL"}, {"measurement": "MIC", "setting": "Acinetobacter baumannii", "value": "> 80", "unit": "µg/mL"}, {"measurement": "MIC", "setting": "Bacillus anthracis", "value": "> 80", "unit": "µg/mL"}, {"measurement": "MIC", "setting": "Klebsiella pneumoniae [6]", "value": "> 80", "unit": "µg/mL"}, {"measurement": "MIC", "setting": "Klebsiella pneumoniae [7]", "value": "> 80", "unit": "µg/mL"}, {"measurement": "MIC", "setting": "Escherichia coli [10]", "value": "> 80", "unit": "µg/mL"}, {"measurement": "MIC", "setting": "Pseudomonas aeruginosa [11]", "value": "> 80", "unit": "µg/mL"}, {"measurement": "MIC", "setting": "Staphylococcus aureus [12]", "value": "> 80", "unit": "µg/mL"}]}, {"compound": "O=C(O)c1cn(C2CC2)c2cc(N3CCNCC3)c(F)cc2c1=O", "note": "[CIPROFLOXACIN]", "values": [{"measurement": "MIC", "setting": "Staphylococcus aureus [1]", "value": 469, "unit": "µg/mL"}, {"measurement": "MIC", "setting": "Bacillus subtilis; [14]", "value": 0.078, "unit": "µg/mL"}, {"measurement": "MIC", "setting": "[3]", "value": 0.313, "unit": "µg/mL"}, {"measurement": "MIC", "setting": "Pseudomonas aeruginosa [13]", "value": 20, "unit": "µg/mL"}, {"measurement": "MIC", "setting": "Enterococcus faecalis [4]", "value": 0.625, "unit": "µg/mL"}, {"measurement": "MIC", "setting": "Acinetobacter baumannii", "value": 1.25, "unit": "µg/mL"}, {"measurement": "MIC", "setting": "Enterococcus faecalis [5]", "value": 1.9, "unit": "µg/mL"}, {"measurement": "MIC", "setting": "Klebsiella pneumoniae [6]", "value": 0.313, "unit": "µg/mL"}, {"measurement": "MIC", "setting": "Klebsiella pneumoniae [7]", "value": 0.078, "unit": "µg/mL"}, {"measurement": "MIC", "setting": "Burkholderia cepacia [8]", "value": 0.078, "unit": "µg/mL"}, {"measurement": "MIC", "setting": "Burkholderia cepacia [9]", "value": 0.039, "unit": "µg/mL"}, {"measurement": "MIC", "setting": "Pseudomonas aeruginosa [11]", "value": 0.313, "unit": "µg/mL"}, {"measurement": "MIC", "setting": "Staphylococcus aureus [12]", "value": 20, "unit": "µg/mL"}]}]}
